# Laboratory results taken from patent US20090298757A1, “OXYNTOMODULIN ANALOGUES AND THEIR EFFECTS ON FEEDING BEHAVIOUR” (Imperial Innovations Limited, priority 2005, published 2009).
# Entries after “also recorded” stand apart in the source; their conditions may differ. Non-standard residues stand in square brackets, D forms with d. No end group written: not given here. *: point of attachment. Lauroyl = CCCCCCCCCCCC(=O)*
# System: C57BL/6 mice
# Experiment: Food intake in fasted mice after injection of peptide
# Assay type: in vivo, mouse
# Conditions: for Multiples of food inhibition Factor: Example 9, food intake during the first hour after injection, activity relative to oxm (1400 nmol/kg); for potency relative to oxyntomodulin: as mentioned in the examples section, times that of oxyntomodulin
# Experimental: Animals. All animal procedures were approved by the British Home Office Animals (Scientific Procedures) Act 1986 (Project License number 70/5516). Male C57BL/6 mice and male Wistar rats were maintained in individual cages under controlled temperature (21-23° C.) with ad libitum access to standard chow (RM1 diet, SDS Ltd, Witham, Essex, UK) and to water. The light cycle was 14 hours light and 10 hours dark with ‘dawn’ at 07:00, lights full on at 07:30, ‘dusk’ at 21:00 with lights off at 21:30. These times were fixed in the animal facility.
# All animals were handled almost daily for on average nine days prior to the first study. During the acclimatization period, each animal received two saline injections at least two days apart in order to further acclimatize to the procedure on the study days.
# Intra-peritoneal (IP) injections. IP injections were administered to mice via a 0.5 ml syringe with a 29-gauge needle (maximum injection volume 0.1 ml). Maximum volume administered IP was 0.1 ml.
# Study protocol: C57BL/6 mice (20-35 g) were injected with the peptide under investigation following a 20-hour fast. Wistar rats were injected following a 24-hour fast. A pre-weighed quantity of chow was presented immediately after injection. The remaining food was measured at regular time intervals (e.g. 1, 2, 3, 4, 6, 8, 24 and 48 hours following injection) and food intake calculated.
# [1] = Example 6, mice, 2700 nmol/kg, 0-8 h
# [2] = Example 7, mice, 1000 nmol/kg, 0-24 h
# [3] = Example 1, fasted mice, 2700 nmol/kg by injection, intervals up to 32 h, vs saline and oxm
# [4] = Example 11, mice, 100 nmol/kg, vs oxm(xx15-24)
# [5] = Example 57, mice, 6 or 20 nmol/kg, vs saline
substance,measurement,setting,value
D-His Ala Gln Gly Thr Phe Thr Ser Asp Tyr Ser Lys Tyr Leu Glu Glu Glu Ala Val Arg Leu Phe Ile Glu Trp Leu Lys Asn Gly Gly Pro Ser Ser Asn Asn Ile Ala ([dH]AQGTFTSDYSKYLEEEAVRLFIEWLKNGGPSSNNIA) [D-His1-Ala2-oxm(xx15-24)(xx27-33)],duration of effect on food intake,"Example 8, mice, 100 mmol/kg (so in the source)",especially long-acting
same,Multiples of food inhibition Factor,mice,1000-4000
same,potency relative to oxyntomodulin,,1-4000 times
D-His Ala Gln Gly Thr Phe Thr Ser Asp Tyr Ser Lys Tyr Leu Asp Ser Arg Arg Ala Gln Asp Phe Val Gln Trp Leu Met Asn Thr Lys Arg Asn Arg Asn Asn Ile Ala (XAQGTFTSDYSKYLDSRRAQDFVQWLMNTKRNRNNIA; D-His at position 1; Oxm Analogue; D-His) [D-His-Ala2-oxm],Multiples of food inhibition Factor,mice,2.5
same,minimum effective dose,"Example 43, mice, food intake",approximately 250 nmol/kg
same,effectiveness on food intake,"Example 43, mice, various doses, vs oxm",more effective than oxm
HSQGTFTSDYSKYLEEEVVRLFVQWLMNTKRNRNNIA,food intake,"Example 16, mice, 30 nmol/kg",reduction in food intake from 0 to 2 hours
His Ser Gln Gly Thr Phe Thr Ser Asp Tyr Ser Lys Tyr Leu Asp Ser Arg Arg Ala Gln Asp Phe Val Gln Trp Leu Lys Asn Gly Gly Pro Ser Ser Asn Asn Ile Ala (HSQGTFTSDYSKYLDSRRAQDFVQWLKNGGPSSNNIA; Oxm Analogue) [oxm(xx27-33)],food intake,"Example 3, mice, 2700 nmol/kg, vs saline and oxm",increased and prolonged inhibition of food intake compared to both saline and oxm
same,Multiples of food inhibition Factor,mice,7
HSQGTFTSDYSKYLDSRRAQDFVQWLKNGGPSSGAPPPS [oxm26ex],food intake,[1],potent and long-lasting effect on food intake
same,food intake,[2],significantly inhibit feeding both compared to saline control and compared to the oxm-treated group
same,duration of effect on food intake,"Example 7, mice, 1000 nmol/kg, vs exendin",not as long-lasting as those of exendin
HSQGTFTSDYSKYLEEEAAQDFVQWLMNTKRNRNNIA [oxm(xx15-18)],food intake,[3],increased and prolonged inhibition of food intake compared to both saline and oxm
HSQGTFTSDYSKYLEEEAIRLFIEWLMNTKRNRNNIA [Ile19-oxm(xx15-24)],potency on food intake,"Example 11, mice, 100 nmol/kg, 0-24 h, vs oxm(xx15-24)",equipotent with or slightly more potent than oxm(xx15-24)
same,onset and duration of activity on food intake,[4],slightly delayed action as compared with oxm (xx15-24)
same,onset and duration of activity on food intake,"Example 11, mice, 100 nmol/kg, vs oxm(xx15-24), listed as SEQ ID NO: 34",delayed onset
D-His Ser Asp Gly Thr Phe Thr Ser Asp Tyr Ser Lys Tyr Leu Glu Glu Glu Val Val Arg Leu Phe Ile Gln Trp Leu Lys Asn Gly Gly Pro Ser Lys Asn Asn Ile Ala Ala Ala Glu Glu Lys-Lauroyl ([dH]SDGTFTSDYSKYLEEEVVRLFIQWLKNGGPSKNNIAAAEEK(Lauroyl)),cumulative food intake,[5],markedly decreased cumulative food intake in comparison to the saline control
HSQGTFTSDYSKYLEEEVVRLFIEWLMNTKRNRNNIA [18Val-oxm(xx15-24)],onset and duration of activity on food intake,[4],delayed onset of activity as compared with oxm(xx15-24) whilst the activity is more prolonged
same,onset and duration of activity on food intake,"Example 11, mice, 100 nmol/kg, vs oxm(xx15-24), listed as SEQ ID NO: 31",delayed onset
"Des-His-oxm: oxm analogue with substitution of the first amino acid (His 1) (SQGTFTSDYSKYLDSRRAQDFVQWLMNTKRNRNNIA; Oxyntomodulin; UniProt P01275 53-89, looked up, variant H1*)",food intake,"Example 12, fasted mice, 2700 nmol/kg, 0-4 h",reduced food intake
same,duration of action on food intake,"Example 12, fasted mice, 2700 nmol/kg, vs native oxm",more sustained action than native oxm
HSQGTFTSDYSKYLEEEAVRLFIEWLMNTKRNRNNIA [oxm(xx15-24)],food intake,[3],greater and more prolonged appetite suppressant effect; also recorded: more potent effect on feeding than oxm
same,cumulative food intake,"Example 2, mice, 300 nmol/kg, first 8 hours post-injection (FIG. 4c)",reduces food intake only slightly less than exendin over the first 8 hours post-injection
same,Multiples of food inhibition Factor,mice,400
same,food intake,"Example 27, mice, 100 nmol/kg",most effective
same,potency relative to oxyntomodulin,,400 times
CH3—CO—NH—CRH—CO-Ser Gln Gly Thr Phe Thr Ser Asp Tyr Ser Lys Tyr Leu Asp Ser Arg Arg Ala Gln Asp Phe Val Gln Trp Leu Met Asn Thr Lys Arg Asn Arg Asn Asn Ile Ala [Acetyloxyntomodulin],onset of anorectic effect,"Example 14, mice, 1400 mmol/kg (so in the source)",later acting than that of oxyntomodulin
His Ser Gln Gly Thr Phe Thr Ser Asp Tyr Ser Lys Tyr Leu Glu Glu Glu Ala Val Arg Leu Phe Ile Glu Trp Leu Lys Asn Gly Gly Pro Ser Ser Gly Ala Pro Pro Pro Ser [oxm(xx15-39)],food intake,[1],potent and long-lasting effect on food intake
same,food intake,[2],significantly inhibit feeding both compared to saline control and compared to the oxm-treated group
His Ser Gln Gly Thr Phe Thr Ser Asp Tyr Ser Lys Tyr Leu Asp Ser Arg Arg Ala Gln Asp Phe Val Gln Trp Leu Arg Asn Gly Gly Pro Ser Ser Asn Asn Ile Ala (HSQGTFTSDYSKYLDSRRAQDFVQWLRNGGPSSNNIA; Arg27-oxm(ex27-33)),food intake,"Example 17, mice, 300 nmol/kg",reduction in food intake from 0 to 1 hours
same,food intake,"Example 30, mice, 1400 or 300 nmol/kg, vs oxm(ex27-33)",reduce the effect of oxm(ex27-33) on food intake
"Ala2-oxm: oxm with Ser at residue 2 substituted by Ala (HAQGTFTSDYSKYLDSRRAQDFVQWLMNTKRNRNNIA; Oxyntomodulin; UniProt P01275 53-89, looked up, variant S2A)",food intake,"Example 5, fasted mice, 2700 nmol/kg, 0-4 h, vs saline and oxm",does NOT significantly reduce food intake compared to saline
His Ser Gln Gly Thr Phe Thr Ser Asp Tyr Ser Lys Tyr Leu Asp Ser Arg Arg Ala Gln Asp Phe Val Gln Trp Leu Lys Asn Gly Gly Pro Asn Ser Asn Asn Ile Ala (HSQGTFTSDYSKYLDSRRAQDFVQWLKNGGPNSNNIA; Asn32-oxm(ex27-33)),food intake,"Example 31, mice, 300 nmol/kg, vs oxm(ex27-33)",reduces the effect of oxm(ex27-33) on food intake
HSQGTFTSDYSKYLEEEAVRLFVQWLMNTKRNRNNIA [oxm(xx15-21)],food intake,[3],greater and more prolonged appetite suppressant effect
same,Multiples of food inhibition Factor,mice,200
same,potency relative to oxyntomodulin,,200 times
D-Ser Ala Asp Gly Thr Phe Thr Ser Asp Tyr Ser Lys Tyr Leu Glu Glu Glu Ala Val Arg Leu Phe Ile Gln Trp Leu Lys Asn Gly Gly Pro Ser Lys Asn Asn Ile Ala Ala Ala Glu Glu Lys-Lauroyl,cumulative food intake,[5],markedly decreased cumulative food intake in comparison to the saline control
D-His Ser Gln Gly Thr Phe Thr Ser Asp Tyr Ser Lys Tyr Leu Asp Ser Arg Arg Ala Gln Asp Phe Val Gln Trp Leu Lys Asn Gly Gly Pro Ser Ser Gly Ala Pro Pro Pro Ser ([dH]SQGTFTSDYSKYLDSRRAQDFVQWLKNGGPSSGAPPPS) [D-His-oxm26ex],cumulative food intake,"Example 13, mice, 1000 nmol/kg (FIG. 21d)",reduction in food intake in comparison to oxm26ex
